# Results reported in US20100311729A1, “Substituted imidazopyridazines and pyrrolopyrimidines as lipid kinase inhibitors” (priority 2007, published 2010).
# Tests used:
# Type in all cases: biochemical
# PI3K gamma = target: T1, PI3K gamma (Homo sapiens, UniProt P48736); assay: PI3 kinase assay (Kinase-Glo luminescence), PI3K gamma; conditions: Enzymatic Data; read-out: PI3K gamma IC50 [umol]
# T1 construct: PI3Kγ BV-950 p110g(D144aa)-C-Term His Tag; His tag (C); made in house; host or cells: construct from the Roger Williams lab (MRC LMB) in pVL1393; baculovirus; Tn5 (Trichoplusia ni) or TiniPro insect cells
# T1 sequence (P48736 144-1102 limits assumed): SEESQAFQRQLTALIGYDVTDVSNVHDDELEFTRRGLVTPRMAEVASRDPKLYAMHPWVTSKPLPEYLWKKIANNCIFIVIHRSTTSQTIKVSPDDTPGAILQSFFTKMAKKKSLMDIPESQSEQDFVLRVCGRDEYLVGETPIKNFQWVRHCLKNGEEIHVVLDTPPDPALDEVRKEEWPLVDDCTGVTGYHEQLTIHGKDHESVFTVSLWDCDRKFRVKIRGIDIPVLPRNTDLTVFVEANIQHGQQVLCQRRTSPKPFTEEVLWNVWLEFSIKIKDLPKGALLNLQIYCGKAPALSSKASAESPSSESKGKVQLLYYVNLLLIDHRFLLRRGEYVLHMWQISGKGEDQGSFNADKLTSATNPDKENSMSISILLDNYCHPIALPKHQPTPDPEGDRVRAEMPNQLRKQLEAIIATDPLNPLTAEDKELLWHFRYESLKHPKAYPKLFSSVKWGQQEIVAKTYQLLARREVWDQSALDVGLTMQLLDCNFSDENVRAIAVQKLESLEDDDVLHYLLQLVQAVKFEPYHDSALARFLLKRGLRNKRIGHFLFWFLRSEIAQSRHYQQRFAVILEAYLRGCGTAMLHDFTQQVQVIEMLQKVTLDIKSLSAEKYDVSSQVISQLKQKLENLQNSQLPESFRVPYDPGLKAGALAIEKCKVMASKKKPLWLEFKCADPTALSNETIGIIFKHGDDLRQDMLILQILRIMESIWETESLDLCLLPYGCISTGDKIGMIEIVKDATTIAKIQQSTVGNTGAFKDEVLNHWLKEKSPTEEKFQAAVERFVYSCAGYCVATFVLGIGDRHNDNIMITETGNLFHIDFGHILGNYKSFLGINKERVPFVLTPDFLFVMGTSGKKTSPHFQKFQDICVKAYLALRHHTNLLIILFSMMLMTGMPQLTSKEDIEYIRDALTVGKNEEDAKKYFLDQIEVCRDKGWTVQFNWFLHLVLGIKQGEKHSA
# Description: (§1) In a more preferred assay, the kinase reaction is performed in a final volume of 10 μL per well of a low volume non binding CORNING, 384 well black plate (Cat. No. #3676). The final concentrations of ATP and phosphatidyl inositol (PI) in the assay are 1 μM and 10 μg/mL respectively. The reaction is started by the addition of ATP.
# (§2) The components of the assay are added per well as follows:
# (§3) […] is determined by a four parameter curve fitting routine that comes aloneg with “excel fit”. A 4 Parameter logistic equation is used to calculate IC50 values (IDBS XLfit) of the percentage inhibition of each compound at 8 concentrations (usually 10, 3.0, 1.0, 0.3, 0.1, 0.030, 0.010 and […]). Alternatively, IC50 values are calculated using idbsXLfit model 204, which is a 4 parameter logistic model.
# PI3K beta = target: T2, PI3K beta (Homo sapiens, UniProt P42338); assay: PI3 kinase assay (Kinase-Glo luminescence), PI3K beta; conditions: Enzymatic Data; read-out: PI3K beta IC50 [umol]
# T2 construct: for the full-length p110-b subunit are generated and fused by overlapping PCR; His tag (C); made in house; host or cells: baculovirus; Tn5 (Trichoplusia ni) or TiniPro insect cells
# T2 sequence (P42338 with tags, fused parts or gaps limits assumed): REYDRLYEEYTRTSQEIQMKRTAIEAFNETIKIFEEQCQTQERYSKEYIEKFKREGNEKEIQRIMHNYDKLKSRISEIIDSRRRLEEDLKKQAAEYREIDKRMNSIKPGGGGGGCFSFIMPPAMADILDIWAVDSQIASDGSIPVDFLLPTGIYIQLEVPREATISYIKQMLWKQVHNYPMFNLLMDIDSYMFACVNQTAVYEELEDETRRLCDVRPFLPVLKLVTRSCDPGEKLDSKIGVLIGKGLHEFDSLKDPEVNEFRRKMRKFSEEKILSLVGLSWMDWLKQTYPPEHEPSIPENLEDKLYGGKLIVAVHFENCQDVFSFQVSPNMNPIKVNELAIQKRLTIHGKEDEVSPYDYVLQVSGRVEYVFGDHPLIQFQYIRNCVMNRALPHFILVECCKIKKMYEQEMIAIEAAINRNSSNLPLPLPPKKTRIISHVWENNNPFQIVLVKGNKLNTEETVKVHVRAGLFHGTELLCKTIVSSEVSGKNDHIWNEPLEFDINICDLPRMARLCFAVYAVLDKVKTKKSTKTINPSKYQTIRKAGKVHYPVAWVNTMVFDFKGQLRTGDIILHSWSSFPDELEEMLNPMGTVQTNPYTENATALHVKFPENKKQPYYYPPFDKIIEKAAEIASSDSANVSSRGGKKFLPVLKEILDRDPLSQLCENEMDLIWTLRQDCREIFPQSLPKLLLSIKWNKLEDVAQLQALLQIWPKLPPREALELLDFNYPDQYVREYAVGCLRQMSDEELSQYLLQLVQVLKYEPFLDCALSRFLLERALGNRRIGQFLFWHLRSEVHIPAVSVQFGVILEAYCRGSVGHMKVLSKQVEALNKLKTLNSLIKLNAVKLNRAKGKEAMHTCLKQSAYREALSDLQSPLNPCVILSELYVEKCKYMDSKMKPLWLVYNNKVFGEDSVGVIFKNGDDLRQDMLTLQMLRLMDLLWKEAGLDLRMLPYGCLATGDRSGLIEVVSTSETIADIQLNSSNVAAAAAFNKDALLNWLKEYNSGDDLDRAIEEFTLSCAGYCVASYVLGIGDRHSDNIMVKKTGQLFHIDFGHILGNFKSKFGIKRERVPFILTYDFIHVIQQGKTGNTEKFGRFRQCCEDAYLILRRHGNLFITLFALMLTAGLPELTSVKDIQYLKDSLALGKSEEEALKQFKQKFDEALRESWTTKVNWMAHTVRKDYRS
# Description: as §1, §2
# (§4) 50 nL test compounds in 90% DMSO per well, in columns 1-20, 8 concentrations (1/3 and 1/3.33 serial dilution step) in single. • Low control: 50 nL of 90% DMSO in half the wells of columns 23-24 (0.45% in final). • High control: 50 nL of reference compound (e.g. compound of Example 7 in WO 2006/122806, incorporated by reference hereinin that regard) in the other half of columns 23-24 (2.5 μM in final). • Standard: 50 nL of reference compound as just mentioned diluted as the test compounds in columns 21-22 • 20 mL ‘buffer’ are prepared per assay: • 200 μL of 1M TRIS HCl pH7.5 (10 mM in final) • 60 μL of 1M MgCl2 (3 mM in final) • 500 μL of 2M NaCl (50 mM in final) • 100 μL of 10% CHAPS (0.05% in final) • 200 μL of 100 mM DTT (1 mM in final) • 18.94 mL of nanopure water • 10 mL ‘PI’ are prepared per assay: • 200 μL of 1 mg/ml L-alpha-Phosphatidylinositol (Liver Bovine, Avanti Polar Lipids Cat. No. 840042C MW=909.12) prepared in 3% OctylGlucoside (10 μg/ml in final) • 9.8 mL of ‘buffer’ • 10 mL ‘ATP’ are prepared per assay: • 6.7 μL of 3 mM stock of ATP giving a final concentration of 1 μM per well • 10 mL of ‘buffer’ • 2.5 mL of each PI3K construct are prepared per assay in ‘PI’ with the following final concentration : • 10 nM PI3K alfa B-1075 • 25 nM beta BV-949 • 10 nM delta BV-1060 • 150 nM gamma BV-950 • 5 μL of ‘PI/PI3K’ are added per well. • 5 μl ‘ATP’ are added per well to start the reaction. • The plates are then incubated at room temperature for 60 minutes (alfa, beta, delta) or 120 minutes (gamma). • The reaction is terminated by the addition of 10 μL Kinase-Glo (Promega Cat. No. #6714). • The assay plates are read after 10 minutes in Synergy 2 reader (BioTek, Vermont USA) with an integration time of 100 milliseconds and sensitivity set to 191. • Output : The High control is around 60'000 counts and the Low control is 30'000 or lower • This luminescence assay gives a useful Z′ ratio between 0.4 and 0.7
# as §3
# (§5) Testing with the following kinases in the test system mentioned above, with the kinases given in the following tables, the following IC 50 data can be obtained: […]
# PI3K delta = target: T3, PI3K delta (Homo sapiens, UniProt O00329); assay: PI3 kinase assay (Kinase-Glo luminescence), PI3K delta; conditions: Enzymatic Data; read-out: PI3K delta IC50 [umol]
# T3 construct: for the full-length p110-d subunit are generated and fused by overlapping PCR; His tag (C); made in house; host or cells: baculovirus; Tn5 (Trichoplusia ni) or TiniPro insect cells
# T3 sequence (O00329 with tags, fused parts or gaps limits assumed): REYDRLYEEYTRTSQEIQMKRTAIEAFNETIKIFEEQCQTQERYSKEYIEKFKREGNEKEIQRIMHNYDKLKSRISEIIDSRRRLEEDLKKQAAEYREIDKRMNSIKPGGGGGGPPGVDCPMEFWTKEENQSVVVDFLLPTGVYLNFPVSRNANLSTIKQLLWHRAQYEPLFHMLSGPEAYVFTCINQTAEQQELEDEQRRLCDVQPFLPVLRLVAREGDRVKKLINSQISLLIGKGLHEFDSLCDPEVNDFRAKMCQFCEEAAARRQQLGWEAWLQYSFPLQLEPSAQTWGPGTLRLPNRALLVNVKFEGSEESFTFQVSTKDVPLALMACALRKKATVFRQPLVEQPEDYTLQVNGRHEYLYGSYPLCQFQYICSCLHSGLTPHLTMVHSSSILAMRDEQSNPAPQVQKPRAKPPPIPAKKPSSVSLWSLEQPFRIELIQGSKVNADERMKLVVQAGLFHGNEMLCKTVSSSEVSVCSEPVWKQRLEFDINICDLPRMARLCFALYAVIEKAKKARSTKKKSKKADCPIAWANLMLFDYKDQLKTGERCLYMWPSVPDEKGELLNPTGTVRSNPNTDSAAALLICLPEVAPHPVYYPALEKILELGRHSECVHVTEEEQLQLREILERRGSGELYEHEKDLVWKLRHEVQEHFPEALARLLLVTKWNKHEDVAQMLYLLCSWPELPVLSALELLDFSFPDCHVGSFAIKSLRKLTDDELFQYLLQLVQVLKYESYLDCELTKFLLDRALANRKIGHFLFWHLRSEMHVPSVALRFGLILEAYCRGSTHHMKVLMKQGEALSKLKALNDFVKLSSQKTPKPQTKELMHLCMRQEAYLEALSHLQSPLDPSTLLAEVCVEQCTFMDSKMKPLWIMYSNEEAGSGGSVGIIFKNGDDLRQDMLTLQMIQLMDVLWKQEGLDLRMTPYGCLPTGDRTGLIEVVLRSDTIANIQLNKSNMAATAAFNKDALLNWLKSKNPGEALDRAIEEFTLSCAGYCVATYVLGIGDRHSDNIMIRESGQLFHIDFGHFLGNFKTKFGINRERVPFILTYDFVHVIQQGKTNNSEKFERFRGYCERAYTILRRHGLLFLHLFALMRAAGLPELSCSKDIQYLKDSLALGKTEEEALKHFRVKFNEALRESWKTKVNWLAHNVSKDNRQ
# Description: as §1, §2, §4, §3, §5
# PI3K alfa = target: T4, PI3K alfa (Homo sapiens, UniProt P42336); assay: PI3 kinase assay (Kinase-Glo luminescence), PI3K alfa; conditions: Enzymatic Data; read-out: PI3K alfa IC50 [umol]
# T4 construct: for the p110-a subunit (with a deletion of the first 20 amino acids); His tag (C); made in house; host or cells: baculovirus; Tn5 (Trichoplusia ni) or TiniPro insect cells
# T4 sequence (P42336 with tags, fused parts or gaps limits assumed): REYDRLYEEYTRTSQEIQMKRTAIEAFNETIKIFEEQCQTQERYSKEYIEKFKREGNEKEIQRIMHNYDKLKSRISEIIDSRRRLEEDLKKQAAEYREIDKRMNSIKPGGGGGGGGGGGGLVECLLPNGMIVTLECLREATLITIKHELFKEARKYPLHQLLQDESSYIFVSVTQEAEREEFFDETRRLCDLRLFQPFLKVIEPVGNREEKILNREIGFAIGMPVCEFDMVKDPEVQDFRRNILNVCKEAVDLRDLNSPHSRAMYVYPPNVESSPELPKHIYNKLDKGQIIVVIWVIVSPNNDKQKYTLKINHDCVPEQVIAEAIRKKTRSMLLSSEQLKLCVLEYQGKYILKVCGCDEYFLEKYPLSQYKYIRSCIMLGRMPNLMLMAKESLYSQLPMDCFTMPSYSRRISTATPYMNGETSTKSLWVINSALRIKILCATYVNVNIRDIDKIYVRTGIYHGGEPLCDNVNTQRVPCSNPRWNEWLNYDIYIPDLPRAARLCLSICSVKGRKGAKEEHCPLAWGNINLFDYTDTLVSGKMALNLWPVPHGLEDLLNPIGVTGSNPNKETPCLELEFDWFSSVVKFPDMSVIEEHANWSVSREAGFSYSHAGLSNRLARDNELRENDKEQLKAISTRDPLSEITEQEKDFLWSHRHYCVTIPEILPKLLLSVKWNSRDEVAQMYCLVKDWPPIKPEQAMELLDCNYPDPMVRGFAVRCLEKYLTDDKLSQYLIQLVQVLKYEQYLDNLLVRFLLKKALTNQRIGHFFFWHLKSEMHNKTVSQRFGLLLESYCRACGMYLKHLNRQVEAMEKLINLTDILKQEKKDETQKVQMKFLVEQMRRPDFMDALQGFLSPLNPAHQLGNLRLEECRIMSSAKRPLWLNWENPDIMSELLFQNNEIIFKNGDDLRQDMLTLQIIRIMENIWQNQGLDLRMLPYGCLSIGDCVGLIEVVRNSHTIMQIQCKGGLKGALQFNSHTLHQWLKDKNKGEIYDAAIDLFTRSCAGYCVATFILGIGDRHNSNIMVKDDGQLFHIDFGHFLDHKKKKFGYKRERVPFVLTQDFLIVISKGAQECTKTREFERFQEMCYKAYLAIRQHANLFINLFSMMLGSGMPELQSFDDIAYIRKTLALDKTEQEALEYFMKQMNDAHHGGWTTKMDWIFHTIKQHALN
# Procedure, shortened: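 Recombinant PI3K constructs (alfa 10 nM, delta 10 nM, gamma 150 nM) with 1 μM ATP and 10 μg/mL phosphatidylinositol in Tris pH 7.5, MgCl2, NaCl, CHAPS, DTT; 60 min (alfa, delta) or 120 min (gamma) at room temperature. ATP depletion read by Kinase-Glo luminescence; IC50 from 4-parameter logistic fit over 8 concentrations.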
SMILES,IC50 (PI3K gamma),IC50 (PI3K beta),IC50 (PI3K delta),IC50 (PI3K alfa)
"Nc1ncc(-c2cnc3ccc(-c4ccc(OCCCNC(=O)C5CC5)cc4)nn23)cc1C(F)(F)F [Example 58, Cyclopropanecarboxylic acid (3-{4-[3-(6-amino-5-trifluoromethyl-pyridin-3-yl)-imidazo[1,2-b]pyridazin-6-yl]-phenoxy}-propyl)-amide]",> 9100 nM,> 9100 nM,2140 nM,87 nM
"COc1cc(-c2ccc3ncc(-c4cnc(N)c(C(F)(F)F)c4)n3n2)ccc1OCCN [Example 59, 5-{6-[4-(2-Amino-ethoxy)-3-methoxy-phenyl]-imidazo [1,2-b]pyridazin-3-yl}-3-trifluoro-methyl-pyridin-2-ylamine]",401 nM,24 nM,60 nM,33 nM
"COc1cc(-c2ccc3ncc(-c4cnc(N)c(C(F)(F)F)c4)n3n2)ccc1OCCNC(=O)C(C)C [Example 60, N-(2-{4-[3-(6-Amino-5-trifluoro-methyl-pyridin-3-yl)-imidazo [1,2-b]pyridazin-6-yl]-2-methoxy-phenoxy}-ethyl)-isobutyr-amide]",159 nM,267 nM,223 nM,36 nM
"COc1cc(-c2ccc3ncc(-c4cnc(N)c(C(F)(F)F)c4)n3n2)ccc1OCCNC(=O)C1CC1 [Example 61, Cyclo-propane-carboxylic acid (2-{4-[3-(6-amino-5-trifIuoro-methyl-pyridin-3-yl)-imidazo [1,2-b)pyridazin-6-yl]-2-methoxy-phenoxy}-ethyl)-amide]",884 nM,1000 nM,428 nM,205 nM
"COc1cc(-c2ccc3ncc(-c4cnc(N)c(C(F)(F)F)c4)n3n2)ccc1OCCNC(C)=O [Example 62, N-(2-{4-[3-(6-Amino-5-trifluoro-methyl-pyridin-3-yl)-imidazo[1,2-b]pyridazin-6-yl]-2-methoxy-phenoxy}-ethyl)-acetamide]",1360 nM,156 nM,138 nM,28 nM
"NCCCOc1ccc(-c2ccc3ncc(-c4cnc(N)c(C(F)(F)F)c4)n3n2)cc1OC(F)(F)F [Example 63, 5-{6-[4-(3-Amino-propoxy)-3-trifluoro-methoxy-phenyl]-imidazo [1,2-b]pyridazin-3-yl}-3-trifluoro-methyl-pyridin-2-ylamine]",39 nM,176 nM,180 nM,153 nM
"CC(C)C(=O)NCCCOc1ccc(-c2ccc3ncc(-c4cnc(N)c(C(F)(F)F)c4)n3n2)cc1OC(F)(F)F [Example 64, N-(3-{4-[3-(6-Amino-5-trifluoro-methyl-pyridin-3-yl)-imidazo [1,2-b]pyridazin-6-yl]-2-trifluoro-methoxy-phenoxy}-propyl)-iso-butyramide]",316 nM,> 9100 nM,6810 nM,562 nM
COc1cc(-c2ccc3ncc(-c4cnc(N)c(C(F)(F)F)c4)n3n2)ccc1OCCCNC(=O)C1CC1 [Example 65],483 nM,505 nM,345 nM,26 nM
"Nc1cnc(-c2cnc3ccc(-c4cnc(N)c(C(F)(F)F)c4)nn23)cn1 [Example 66, 5-[6-(6-Amino-5-trifluoro-methyl-pyridin-3-yl)-imidazo [1,2-b]pyridazin-3-yl]-pyrazin-2-ylamine]",479 nM,3 nM,17 nM,8 nM
"COc1nc(-c2cnc3ccc(-c4cnc(N)c(C(F)(F)F)c4)nn23)cnc1N [Example 67, 5-[6-(6-Amino-5-trifIuoro-methyl-pyridin-3-yl)-imidazo[1,2-b]pyridazin-3-yl]-3-methoxy-pyrazin-2-ylamine]",2630 nM,21 nM,85 nM,34 nM
"COc1ccc(-c2ccc3ncc(-c4cnc(N)c(OC)n4)n3n2)cc1OC [Example 68, 5-[6-(3,4-Dimethoxy-phenyl)-imidazo [1,2-b]pyridazin-3-yl]-3-methoxy-pyrazin-2-ylamine]",1300 nM,51 nM,26 nM,9 nM
"CC(C)(C)OC(=O)NCCn1cc(-c2ccc3ncc(-c4cnc(N)c(C(F)(F)F)c4)n3n2)ccc1=O [Example 69, (2-{5-[3-(6-Amino-5-trifluoro-methyl-pyridin-3-yl)-imidazo [1,2-b]pyridazin-6-yl]-2-oxo-2H-pyridin-1-yl}-ethyl)-carbamic acid tert-butyl ester]",2430 nM,1430 nM,156 nM,50 nM
"NCCn1cc(-c2ccc3ncc(-c4cnc(N)c(C(F)(F)F)c4)n3n2)ccc1=O [Example 70, 1-(2-Amino-ethyl)-5-[3-(6-amino-5-trifluoro-methyl-pyridin-3-yl)-imidazo [1,2-b]pyridazin-6-yl]-1H-pyridin-2-one]",491 nM,49 nM,63 nM,58 nM
"CC(=O)NCCCOc1ccc(-c2ccc3ncc(-c4cnc(N)c(C(F)(F)F)c4)n3n2)cc1 [Example 71, N-(3-{4-[3-(6-Amino-5-trifluoro-methyl-pyridin-3-yl)-imidazo [1,2-b]pyridazin-6-yl]-phenoxy}-propyl)-acetamide]",8510 nM,2650 nM,739 nM,170 nM
"CC(C)S(=O)(=O)c1ccc(-c2cnc3ccc(-c4cnc(N)c(C(F)(F)F)c4)nn23)cc1 [Example 72, 5-{3-[4-(Propane-2-sulfonyl)-phenyl]-imidazo[1,2-b]pyridazin-6-yl}-3-trifluoro-methyl-pyridin-2-lamine]",2020 nM,233 nM,56 nM,28 nM
"CC(C)(C)OC(=O)NCCOc1ccc(-c2ccc3ncc(-c4cnc(N)c(C(F)(F)F)c4)n3n2)cc1 [Example 73, (2-{4-[3-(6-Amino-5-trifluoro-methyl-pyridin-3-yl)-imidazo [1,2-b]pyridazin-6-yl]-phenoxy}-ethyl)-carbamic acid tert-butyl ester]",> 9100 nM,> 9100 nM,3950 nM,725 nM
"NCCOc1ccc(-c2ccc3ncc(-c4cnc(N)c(C(F)(F)F)c4)n3n2)cc1 [Example 74, 5-{6-[4-(2-Amino-ethoxy)-phenyl]-imidazo [1,2-b]pyridazin-3-yl}-3-trifluoro-methyl-pyridin-2-ylamine]",1430 nM,147 nM,162 nM,159 nM
